Patent publication US20230058171A1, “NEW ORAL PHARMACEUTICAL COMPOSITION FOR CANCER THERAPY” (BOEHRINGER INGELHEIM INTERNATIONAL GMBH, priority 2021, published 2023)

System: patients with advanced or metastatic solid tumors
Test: Trial 1403-0001 Phase Ia dose escalation, Arm A (D1 q3w): adverse events
Assay type: in vivo
From the text: Trial 1403-0001 was a first in human Phase Ia/Ib, open label, multicenter, dose-escalation study of the MDM2-antagonist of formula I in patients with advanced or metastatic solid tumors. The Phase Ia dose escalation part aimed to define the Maximum Tolerated Dose (MTD) and the Recommended Dose for Expansion (RDE) for the MDM2-antagonist of formula I based on safety and tolerability, pharmacokinetics, pharmacodynamics, and preliminary efficacy. The RDE will be further explored in the Phase Ib expansion part of the trial.
Fifty-four patients had been treated with the MDM2-antagonist of formula I in the Phase Ia dose escalation part of clinical trial 1403-0001. Twenty-nine patients were treated in Arm A (dosing regimen: dosing on Day 1 of a 21 days-cycle, D1 q3w) and twenty-five patients were treated in Arm B (dosing regimen: dosing on Day 1 and on Day 8 of a 28 days-cycle, D1 D8 q4w). Dose levels evaluated in Arm A were 10, 20, 30, 45, 50, 60, and 80 mg. Dose levels evaluated in Arm B (referring to the dose administered on Day 1 and Day 8) were 5, 10, 15, 20, 30, 45, and 60 mg.
During the on-treatment period, all 29 patients were reported with adverse events (AEs). […] A total of 27 patients (93.1%) were reported with at least 1 AE judged to be related to the MDM2-antagonist of formula I by investigators.

SMILES: Cc1c(C(=O)O)ccc2c3n(nc12)[C@@H]1[C@H](C3)N(CC2CC2)[C@@]2(C(=O)Nc3cc(Cl)ccc32)[C@H]1c1cccc(Cl)c1F [MDM2-antagonist of formula I, (2′S,3′S,3a'S,10a'S)-6-chloro-3′-(3-chloro-2-fluorophenyl)-1′-(cyclopropylmethyl)-6′-methyl-2-oxo-1,2,3′,3a′,10′,10a′-hexahydro-1′H-spiro[indole-3,2′-pyrrolo[2′,3′:4,5]pyrrolo[1,2-b]indazole]-7′-carboxylic acid]
- Serious AEs: Results in Death, % (Arm A D1 q3w, 10 mg): 0%
- Subjects with maximum CTC Grade 5, % (Arm A D1 q3w, 10 mg): 0%
- Serious AEs: Results in Death, % (Arm A D1 q3w, 20 mg): 0%
- Subjects with maximum CTC Grade 5, % (Arm A D1 q3w, 20 mg): 0%
- Serious AEs: Results in Death, % (Arm A D1 q3w, 30 mg): 0%
- Subjects with AEs leading to dose reduction of trial drug, % (Arm A D1 q3w, 30 mg): 33.3%
- Subjects with maximum CTC Grade 2, % (Arm A D1 q3w, 30 mg): 33.3%
- Subjects with maximum CTC Grade 3, % (Arm A D1 q3w, 30 mg): 66.7%
- Subjects with maximum CTC Grade 5, % (Arm A D1 q3w, 30 mg): 0%
- Patients with Dose limiting toxicity, % (Arm A D1 q3w, 45 mg): 33.3%
- Serious AEs: Results in Death, % (Arm A D1 q3w, 45 mg): 0%
- Subjects with AEs leading to dose reduction of trial drug, % (Arm A D1 q3w, 45 mg): 33.3%
- Subjects with maximum CTC Grade 3, % (Arm A D1 q3w, 45 mg): 33.3%
- Subjects with maximum CTC Grade 5, % (Arm A D1 q3w, 45 mg): 0%
- Serious AEs: Results in Death, % (Arm A D1 q3w, 50 mg): 0%
- Subjects with maximum CTC Grade 5, % (Arm A D1 q3w, 50 mg): 0%
- Serious AEs: Results in Death, % (Arm A D1 q3w, 60 mg): 0%
- Subjects with maximum CTC Grade 3, % (Arm A D1 q3w, 60 mg): 71.4%
- Subjects with maximum CTC Grade 5, % (Arm A D1 q3w, 60 mg): 0%
- Patients with Dose limiting toxicity, % (Arm A D1 q3w, 80 mg): 66.7%
- Serious AEs: Requires or Prolongs Hospitalization, % (Arm A D1 q3w, 80 mg): 33.3%
- Serious AEs: Results in Death, % (Arm A D1 q3w, 80 mg): 0%
- Subjects with maximum CTC Grade 2, % (Arm A D1 q3w, 80 mg): 33.3%
- Subjects with maximum CTC Grade 4, % (Arm A D1 q3w, 80 mg): 66.7%
- Subjects with maximum CTC Grade 5, % (Arm A D1 q3w, 80 mg): 0%
- Subjects with serious AEs, % (Arm A D1 q3w, 80 mg): 33.3%
- Serious AEs: Requires or Prolongs Hospitalization, % (Arm A D1 q3w, Total): 31.0%
- Serious AEs: Results in Death, % (Arm A D1 q3w, Total): 0%
- Subjects with AEs leading to Discontinuation of trial drug, % (Arm A D1 q3w, Total): 6.9%
- Subjects with maximum CTC Grade 5, % (Arm A D1 q3w, Total): 0%
- drug-related AE diarrhea, patients (Arm A, all 29 patients): 27.6%
- drug-related AE fatigue, patients (Arm A, all 29 patients): 41.1%
- drug-related AE nausea, patients (Arm A, all 29 patients): 72.4%
- drug-related AE platelet count decreased, patients (Arm A, all 29 patients): 37.9%
- drug-related AE vomiting, patients (Arm A, all 29 patients): 41.1%
- drug-related AE white blood cell count decreased, patients (Arm A, all 29 patients): 27.6%
- fatal AEs (Arm A, all 29 patients): No fatal AEs were reported
- patients with DLTs during the MTD evaluation period (cycle 1) (Arm A, all 29 patients): 17.2%
- AE anemia, patients (human, in vivo): 41.4%
- AE back pain, patients (human, in vivo): 20.7%
- AE decreased appetite, patients (human, in vivo): 41.4%
- AE diarrhea, patients (human, in vivo): 34.5%
- AE fatigue, patients (human, in vivo): 51.7%
- AE nausea, patients (human, in vivo): 82.8%
- AE platelet count decreased, patients (human, in vivo): 37.9%
- AE vomiting, patients (human, in vivo): 48.3%
- AEs leading to Discontinuation: Other adverse event, % (human, in vivo): 3.4%
- Grade 3 AE platelet count decreased, patients (human, in vivo): 13.8%
- Grade 4 AE neutrophil count decreased, patients (human, in vivo): 10.3%
- SAE platelet count decreased, patients (human, in vivo): 6.9%
- Serious AEs: Cogenital Anomaly or Birth Defect, % (human, in vivo): 0%
- Serious AEs: Is Life Threatening, % (human, in vivo): 0%
- Serious AEs: Other Medically Important Serious Event, % (human, in vivo): 3.4%
- Serious AEs: Persists of Signif. Disability/Incapacity, % (human, in vivo): 0%
- Subjects with any AE, % (human, in vivo): 100%
- Subjects with investigator defined drug-related AEs, % (human, in vivo): 93.1%
- Subjects with maximum CTC Grade 1, % (human, in vivo): 3.4%
- Subjects with maximum CTC Grade 2, % (human, in vivo): 27.6%
- Subjects with maximum CTC Grade 3, % (human, in vivo): 51.7%
- Subjects with maximum CTC Grade 4, % (human, in vivo): 17.2%
- Subjects with serious AEs, % (human, in vivo): 31.0%
- dose reduction due to enterocolitis, patients (human, in vivo): 3.4%
- dose reduction due to nausea, patients (human, in vivo): 6.9%
- dose reduction due to neutropenia and/or thrombocytopenia, patients (human, in vivo): 20.7%
- drug-related AE anemia, patients (human, in vivo): 24.1%
- drug-related AE decreased appetite, patients (human, in vivo): 34.5%
